Results taken from PubChem BioAssay (NCI).
“And” between values parts separate entries of the source, which are not always exact repeats. Equal values may be shown once.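 How tested: cells in 96-well plates exposed to compound for 48 hours at five concentrations. GI50: concentration for 50% inhibition of growth. At the TGI there is no net growth.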

How the values were obtained:
Test in all cases: DTP human tumour cell line panel, 48 h
KM12 colon = tested on: KM12 colon
LOX IMVI melanoma = tested on: LOX IMVI melanoma
SK-MEL-2 melanoma = tested on: SK-MEL-2 melanoma
DU-145 prostate = tested on: DU-145 prostate
SF-295 CNS = tested on: SF-295 CNS
K-562 leukemia = tested on: K-562 leukemia
A498 renal = tested on: A498 renal
SF-539 CNS = tested on: SF-539 CNS
A549 NSCLC = tested on: A549 NSCLC
MDA-MB-231 breast = tested on: MDA-MB-231 breast

Compound	TGI (KM12 colon) [µM]	TGI (LOX IMVI melanoma) [µM]	TGI (SK-MEL-2 melanoma)	TGI (DU-145 prostate)	TGI (SF-295 CNS) [µM]	TGI (K-562 leukemia) [µM]	TGI (A498 renal)	TGI (SF-539 CNS)	GI50 (SK-MEL-2 melanoma) [µM]	GI50 (A549 NSCLC) [µM]	TGI (A549 NSCLC)	GI50 (K-562 leukemia)	GI50 (A498 renal)	TGI (MDA-MB-231 breast) [µM]
Cc1[nH]c(=O)[nH]c(=S)c1C(=O)Nc1cccc2cc3ccccc3cc12	> 100	> 100	> 100 µM	> 100 µM	> 100	> 100	> 100 µM							
O=C1C=CC(=O)c2c(O)c(N3CCN(CCOCCO)CC3)c(Cl)c(O)c21			4.51 µM and 1.11 µM	3.31 µM [middle of 4 runs]		> 100	5.65 µM [middle of 4 runs]	3.31 µM [middle of 4 runs]	2.3	2.39	7.87 µM [middle of 4 runs]	0.265 µM and 0.0439 µM	2.57 µM [middle of 4 runs]	
C#CCC1(C(=O)OCC)C(=O)c2ccccc2N(C)C1=O (stereo not given)		> 100	> 100 µM		> 100	> 100	> 100 µM	> 100 µM						
CC1OC2OC3C(OCC(O)C3O)OC(=O)[C@]34CCC(C)(C)CC3C3=CCC5[C@@]6(C)C[C@H](O)[C@H](OC7OC(CO)C(O)C(O)C7OC7OCC(OC(=O)CC(C)(O)CC(=O)OC1C(OC1OC(CO)C(O)C(O)C1O)C2O)C(O)C7O)[C@@](C)(CO)C6CC[C@@]5(C)[C@]3(C)CC4 (stereo not given in full)	19.3	20.6	13.5 µM	17.3 µM	13.4			26.8 µM			13.5 µM			21.1
COC(=O)C1=C(O)C(C(=O)OC)[C@]2(O)[C@H](C(=O)OC)[C@H]1C[C@@H](c1ccc([N+](=O)[O-])cc1)[C@H]2C(=O)OC (stereo not given in full)	> 100	32	46.6 µM	> 100 µM	> 100	> 100		> 100 µM			68.1 µM			83.9
CCN(CC)c1nc(N(C)C)c2ccccc2n1	> 100	> 100	> 100 µM		> 100	44.5		96.1 µM			> 100 µM			> 100
C=C(C)[C@@H]1CC[C@]2(C(=O)O)CC[C@]3(C)[C@H](CCC4[C@@]5(C)CC[C@H](C(=O)/C=C/c6ccc(O)c(O)c6)C(C)(C)[C@@H]5CC[C@]43C)[C@@H]12 (stereo not given in full)	28.2	> 100	38 µM	28.1 µM	18.4	> 100					> 100 µM			35.7
O=C1C=CC(=O)c2c(Cl)ccc(O)c21	> 100	37.2	97.5 µM		> 57	> 74	> 100 µM	> 56.8 µM			> 100 µM			
NS(=O)(=O)c1ccc(NNc2c3ccccc3nc3c(C(=O)Nc4ccc(S(=O)(=O)Nc5ncccn5)cc4)cccc23)cc1	> 25	> 25	> 25 µM	> 25 µM	> 25	> 25		> 25 µM			> 25 µM			> 25
CSc1nc(NC(C)C)c2c(n1)Sc1nc3ccccc3n1C2O (stereo not given)	> 100	> 100	52 µM		> 100	> 100					> 100 µM			> 100
CC(=O)CC(=O)CCC(=O)O	> 100	> 100	> 100 µM		> 100	> 100		> 100 µM			> 100 µM			
CC(=O)O[C@H]1CC[C@@]2(C)[C@H](CC[C@@H]3[C@@H]2CC[C@]2(C)[C@@H](c4ccc(=O)oc4)C[C@H]4O[C@]342)C1	36.8	7.67	6.49 µM		2.97	13	4.96 µM	1.72 µM			0.759 µM			
COc1c(C)c(C/C=C(\C)CC/C=C(\C)CCC=C(C)C)c(OC)c(OC)c1OC	> 100	> 100	> 100 µM	> 100 µM	> 100	> 100		> 100 µM			> 100 µM			> 100
Cc1cc2cc3c(cc2c(-c2ccc(N)cc2)n1)OCO3	> 100		> 100 µM	> 100 µM	> 100	92		> 100 µM			> 100 µM			> 100
CC1(C2CCC3(C)OC3C2)CO1 (stereo not given)	> 100	> 100	> 100 µM		> 100	> 100		> 100 µM			> 100 µM			
CCOC(=O)C1(C(F)(F)F)N=C(CC)OC(N2CCOCC2)=N1 (stereo not given)	> 100	> 100	> 100 µM	> 100 µM	> 100	> 100		> 100 µM			> 100 µM			> 100
O=C(CC1Sc2ccccc2NC1=O)Nc1ccc(Cl)cc1 (stereo not given)	> 100	> 100	> 100 µM		> 100	> 100	> 100 µM	> 100 µM			> 100 µM			
O=c1cc(NCc2ccncc2)[nH]c(=O)[nH]1	> 100	> 100	> 100 µM		> 100	> 100	> 100 µM	> 100 µM			> 100 µM			> 100
